Calls of active or inactive are those of the source.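 The calls were made as follows: active = compounds giving half or more protection of infected cells from virus-caused growth loss, again on retest; inactive = the rest.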 Where a SMILES comes first, the peptide text is derived from it.
Test system: CEM cells HIV-1 protection, formazan growth assay
Experiment: NCI AIDS Antiviral Assay
Settings: for IC50: measured here: growth of uninfected CEM cells
Procedure, shortened: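 Soluble formazan readout of cell growth; CEM cells ± HIV-1; 5 drug concs. ≥50% protection → retest; ≥50% again = moderately active; reproducible 100% = confirmed active.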

Row | Structure (SMILES) | EC50 [µM] | IC50 [µM] | outcome
1 | CC(=O)OC12CCCC(=O)C1C1CC/C=C\CCC12 (configuration not stated) | > 170 | 105 | –
2 | COc1ccc(OC)c(NC(=O)C2=C(C)NC(C)=C(C(=O)Nc3cc(OC)ccc3OC)C2c2ccccc2)c1 | – | – | inactive
3 | O=C1CSC(=Nc2ccccc2)N1c1ccc(-n2c(-c3ccc(N=Cc4ccc(Cl)cc4)cc3)nc3ccccc3c2=O)cc1 | > 56.2 | > 56.2 | –
4 | C=[CH][Sn]([CH]=C)([S]c1cccc2cccnc12)[S]c1cccc2cccnc12 | – | – | inactive
5 | COc1ccc(/C(=N\NC(=O)C(N)=O)C(c2ccc(OC)cc2)C2(O)C(=O)Nc3c(Cl)cccc32)cc1 (configuration not stated) | > 18.2 | > 18.2 | –
6 | O=P(O)(O)CC1OC(CO)C(O)C1O (configuration not stated) | > 200 | > 200 | –
7 | CC(NC(=O)OCc1ccccc1)NC(=O)C(CC(=O)OC(C)(C)C)NC(=O)OC(C)(C)C (configuration not stated) | > 200 | > 200 | –
8 | COC(=O)C1(C(=O)OC)N=C(C)OC1/C=C/c1ccccc1 (configuration not stated) | > 200 | > 100 | –
9 | O=C(CCCCCCCCC(=O)NCC1(c2ccccc2)CCN(Cc2ccccc2)CC1)NCC1(c2ccccc2)CCN(Cc2ccccc2)CC1 | > 200 | 102 | –
10 | CC(C)CC(NC(=O)C(Cc1ccc(O)cc1)NC(=O)C(C)N)C(=O)NCC(=O)NC(CCCCN)C(=O)NC(CCCCN)C(=O)NC(C(=O)NC(C)C(=O)NC(C(=O)NC(CC(N)=O)C(=O)O)C(C)O)C(C)C (configuration not stated) (H-AYLGKKVATN-OH; configuration not given here) | – | – | inactive
11 | CN(C)CCC[N+]1=Nc2cccc3cccc(c23)N1 | – | – | inactive
12 | COc1ccc2occ(CCC(=O)O)c2c1 | – | – | inactive
13 | N#Cc1c2nc3ccccc3nc2n2ccc3ccccc3c12 | > 200 | > 200 | –
14 | O=C(O)CC1CCN(C(=O)c2ccccc2)C(Cc2c[nH]c3ccccc23)C1O (configuration not stated) | > 126 | > 126 | –
15 | CC(=O)N=c1ccc2nc(N)nn(O)c-2c1 | > 200 | > 200 | –
16 | Cn1c(C2CCCc3c2c2ccccc2n3C)cc2ccccc21 (configuration not stated) | > 16.6 | > 16.6 | –
17 | CC(C)(C)CC(C)(C)c1ccc(O)c(SSc2cc(C(C)(C)CC(C)(C)C)ccc2O)c1 | > 200 | 25.7 | –
18 | COP(=O)(OC)OC=C(Cl)Cl | > 200 | > 200 | –
19 | Cc1c(C#N)c2ccccc2c2nc3ccccc3n12 | > 200 | 129 | –
20 | Cc1nnc2sc3ccccc3n12 | – | – | inactive
21 | COc1cc(C(=O)CBr)c(OC)cc1C | > 200 | > 200 | –
22 | CC(=O)OCC1OC(Nc2cc(=O)[nH]c(=O)[nH]2)C(OC(C)=O)C(OC(C)=O)C1OC(C)=O (configuration not stated) | – | – | inactive

Row | Structure (SMILES) | EC50 [µM] | IC50 [µM] | outcome
23 | COC1=CC(=O)C2C(C1=O)C(c1ccc(OC)c(OC)c1)[C@H]2C (some centres not stated) | > 12 | > 12 | –
24 | c1ccc(Nc2nnc(CCCCCCCCc3nnc(Nc4ccccc4)o3)o2)cc1 | > 200 | 107 | –
25 | CCOC(=O)C1(Cc2ccc3c(c2)CCC3)Cc2cc3c(cc2C1)CCC3 | > 200 | 15.5 | –
26 | CN(C)CCCNC(=O)c1nc(NC(=O)c2nc(NC(=O)c3nc(NC(=O)c4ccc(C(=O)Nc5cn(C)c(C(=O)Nc6cn(C)c(C(=O)Nc7cn(C)c(C(=O)NCCCN(C)C)n7)n6)n5)nc4)cn3C)cn2C)cn1C | > 50.1 | > 50.1 | –
27 | CCOC(=O)/C=C/c1ccccn1 | > 1410 | 646 | –
28 | C#CC(C)(C)Oc1ccc2c(=O)c(-c3ccc(OC)c(OC)c3)coc2c1 | > 200 | 22.4 | –
29 | O=S1(=O)CCCCO1 | – | – | inactive
30 | O=C(Nc1cccc([N+](=O)[O-])c1)C(=O)C(C(=O)c1ccccc1-c1ccccc1)C1OC(=O)c2ccccc21 (configuration not stated) | > 69.2 | 33.1 | –
31 | CC(=O)NCc1nc(C#N)c(N)o1 | > 200 | > 200 | –
32 | O=C(O)CCCC(=O)CCCC(=O)O | – | – | inactive
33 | CN=C(N)NC | > 1480 | > 1480 | –
34 | CC1NC(=O)c2c(-c3ccccc3)nn(-c3ccccc3)c2NC1=O (configuration not stated) | > 200 | > 200 | –
35 | CC1(c2nc3ccccc3[nH]2)CCC(C(=O)O)C(C)(C)O1 (configuration not stated) | > 200 | 151 | –
36 | COC(=O)C(=O)C(C(=O)C(=O)Nc1cc(Cl)c(Cl)cc1Cl)c1nc2ccc([N+](=O)[O-])cc2[nH]c1=O (configuration not stated) | > 457 | 95.5 | –
37 | CC(=O)O[C@H]1CC(C)(C)C(=C=C/C(C)=C/C=C/C=C/C=C(C)/C=C2C=C(/C=C/[C@@]34O[C@]3(C)C[C@@H](O)CC4(C)C)C(=O)O/2)[C@](C)(O)C1 | > 151 | 6.92 | –
38 | S=C1NC(c2ccccc2)=NC(Cc2ccccc2)(c2ccccc2)N1c1ccccc1 (configuration not stated) | – | – | inactive
39 | COc1c(O)ccc2oc3cccc(O)c3c(=O)c12 | > 200 | 110 | –
40 | COc1ccc(C2=NOC3COC4C=CC=CC4OCC23)cc1 (configuration not stated) | > 83.2 | > 83.2 | –
41 | C=C1CN(S(=O)(=O)c2ccc(C)cc2)CCCN(Cc2ccccn2)CCCN(S(=O)(=O)c2ccc(C)cc2)C1 | > 200 | > 200 | –
42 | CC1(C)O[C@H]2Cn3c(c(C#N)c4ccccc43)[C@H]2O1 | > 200 | 178 | –
43 | CCCc1onc(CCC(=O)N(Cc2ccccc2)Cc2ccccc2)c1CC | – | – | inactive
44 | Nc1nn2cc3c(nc2c1N=Nc1ccccc1)CCC3 | > 200 | > 200 | –

— PubChem BioAssay AID179 (DTP/NCI, 2004)
